We go through three molecules from patent EP0959065B1, “Pyrethroid compound and composition for controlling pest containing the same” (priority 1998, dated 1999).

A short description of data set [1]: Calculation of safety factor (rat LD50 / housefly LD50). The conditions noted are these: Toxicity to rat (LD50 value) / Insecticidal activity against housefly (LD50 value). Here is the method: The safety factor was calculated from the insecticidal activity against housefly and the toxicity to rat according to the following equation. […] Safety factor = Toxicity to rat (LD50 value)] / [Insecticidal activity against housefly (LD50 value)] [formula]

Data set [2] in a line: Toxicity to rat, administration of corn oil dilutions. The conditions noted are these: in vivo, male rats, dilution in corn oil, 10 ml/kg, mortality after 7 days. Here is the method: Each of the present compound and reference compounds A and B was diluted with corn oil to predetermined concentrations. Each of the dilutions thus prepared was administered to male rats in an amount of 10 ml/kg. The rats were given water and diet. After 7 days, the dead and alive were counted for mortality. From the mortality, LD50 (mg/kg) value was determined.

The test system of the next data set is female adult houseflies. Kind of data set: Insecticidal activity against housefly, topical application of acetone dilutions on the nota. Format: in vivo. The conditions noted are these: Musca domestica, 0.5 µl acetone dilution per insect on the nota, mortality after 24 hours. Here is the method:
The present compound was diluted with acetone to concentrations of 100, 50, 25, 12.5 and 6.25 ppm. Each of reference compounds A and B was also diluted with acetone to concentrations of 400, 200, 100, 50 and 25 ppm. Each of the dilutions thus prepared was applied on the nota of female adult houseflies in a volume of 0.5 µl per insect. The insects were given water and diet. After 24 hours, the dead and alive were counted for mortality. From the mortality, LD50 (mg/kg) value was determined.

For data set [3], the system named is houseflies (Musca domestica). Kind of data set: Mosquito coil fumigation test in glass chamber (knock-down and lethal activity). Format: in vivo. More on the design: key to Knocking-down activity: Excellent: All the insects were knocked down or dead (the total in the two replications); Good: 1 to 2 insects were not knocked down or dead (ditto); Mediocre: 3 to 4 insects were not knocked down or dead (ditto); Bad: 5 or more insects were not knocked down or dead (ditto). The following applies: two replications; for Knocking-down activity: 0.3 g coil burnt 30 seconds in 0.34 m^3 chamber, knocked-down counted at ten minutes, 10 adult houseflies; for Lethal activity: insects recovered at 25 minutes, dead and alive counted in 24 hours. The source says: A base material for mosquito coil (obtained by stirring a 4:3:3 mixture of Tabu powder, Pyrethrum marc and wood powder, adding water thereto, thoroughly kneading the resulting mixture, and molding and drying the kneaded mixture) was uniformly impregnated with a solution of the present compound in acetone so that the material contains a predetermined amount of the compound. The resultant base material was air-dried to obtain a mosquito coil.
Ten adult houseflies (Musca domestica) (male/ female = 5/5) were released in a glass chamber (70cm cube, capacity: 0.34 m^3). 0.3 Gram of a mosquito coil containing the present compound prepared according to the procedure described above was set on a holder in the center of the bottom of the chamber, ignited at one end thereof, and taken out of the chamber after 30 seconds of combustion. The knocked-down houseflies were counted in ten minutes after the setting of the coil. In 25 minutes after the setting of the coil, the test insects were recovered into a cup for recovery and given water and diet. The dead and alive were counted in 24 hours. Two replications of the test were carried out. The same test procedure was repeated for 4-methyl-2,3,5,6-tetrafluorobenzyl (1R)-cis-3-(2,2-dichlorovinyl)-2,2-dimethylcyclopropanecarboxylate (hereinafter referred to as reference compound A) and for a mixture of 50% by weight of 4-methyl-2,3,5,6-tetrafluorobenzyl (1RS)-cis-3-(2,2-dichlorovinyl)-2,2-dimethylcyclopropanecarboxylate and 50% by weight of 4-methyl-2,3,5,6-tetrafluorobenzyl (1RS)-trans-3-(2,2-dichlorovinyl)-2,2-dimethylcyclopropanecarboxylate (this mixture is hereinafter referred to as reference compound B). […] In the table, the knocking-down activity and the lethal activity are indicated according to the following criterion: • Excellent: All the insects were knocked down or dead (the total in the two replications). • Good: 1 to 2 insects were not knocked down or dead (ditto). • Mediocre: 3 to 4 insects were not knocked down or dead (ditto). • Bad: 5 or more insects were not knocked down or dead (ditto).

On to `Cc1c(F)c(F)c(COC(=O)[C@@H]2[C@@H](C=C(Cl)Cl)C2(C)C)c(F)c1F` [Present compound, 4-methyl-2,3,5,6-tetrafluorobenzyl (1R)-trans-3-(2,2-dichlorovinyl)-2,2-dimethylcyclopropanecarboxylate], for which, in data set [1], the Safety factor is 320. In addition, the median lethal dose (LD50) at 7 days in data set [2] stood at 300 mg/kg. Further, in the data set with female adult houseflies, the median lethal dose (LD50) came out at 0.93 mg/kg. Further, in data set [3] (concentration 0.5 %W/W), the Knocking-down activity result is “Excellent” and the Lethal activity entry is given as “Good (1 to 2 insects were not knocked down or dead (ditto))”.

Take `Cc1c(F)c(F)c(COC(=O)[C@@H]2[C@H](C=C(Cl)Cl)C2(C)C)c(F)c1F` [Reference compound A, 4-methyl-2,3,5,6-tetrafluorobenzyl (1R)-cis-3-(2,2-dichlorovinyl)-2,2-dimethylcyclopropanecarboxylate]: the Safety factor in data set [1] is recorded as less than 36. The 50% lethal dose (LD50) at 7 days in data set [2] is less than 100 mg/kg. This molecule showed an LD50 in the data set with female adult houseflies of 2.8 mg/kg. Moreover, in data set [3] (concentration 0.5 %W/W), the Knocking-down activity entry is “Bad (5 or more insects were not knocked down or dead (ditto))” and the Lethal activity result was “Bad (5 or more insects were not knocked down or dead (ditto))”.

As for “mixture of 50% by weight of 4-methyl-2,3,5,6-tetrafluorobenzyl (1RS)-cis-3-(2,2-dichlorovinyl)-2,2-dimethylcyclopropanecarboxylate and 50% by weight of 4-methyl-2,3,5,6-tetrafluorobenzyl (1RS)-trans-3-(2,2-dichlorovinyl)-2,2-dimethylcyclopropanecarboxylate [Reference compound B]”, the Safety factor in data set [1] is on record as less than 35. Besides, the Knocking-down activity entry in data set [3] (concentration 0.5 %W/W) was “Bad (5 or more insects were not knocked down or dead (ditto))”; in data set [3] (concentration 1.0 %W/W) it was “Mediocre (3 to 4 insects were not knocked down or dead (ditto))”. The Lethal activity entry in data set [3] (concentration 0.5 %W/W) and in data set [3] (concentration 1.0 %W/W) was “Bad (5 or more insects were not knocked down or dead (ditto))” in each case.
